The target in one assay is LRRK2 wild type enzyme (Homo sapiens, UniProt Q5S007). As to the kind of experiment: Biochemical Assay: LRRK2 TR-FRET (LanthaScreen) kinase assay with LRRKtide substrate. Particulars: LRRK2 Inhibition, Table 8. The gist of the method:
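TR-FRET detection (Tb-labelled phospho-LRRKtide antibody, EDTA stop, 30 min) followed a 120 min, 23 °C reaction of 3 nM wild-type human LRRK2 with LRRKtide (400 nM) and ATP (25 μM) in Tris pH 8.0. Compounds: 11-point 3-fold series from 10 μM, 15 min enzyme preincubation.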
A general note: In TR-FRET formats the signal depends on donor and acceptor labels being close together.

Assay [1] concerns the target T1, wild type LRRK2 overexpressed in recombinant HEK-293T cells (Homo sapiens, UniProt Q5S007).
T1 construct: host or cells: HEK293T (transient transfection with pCMV-LRRK2 WT plasmid)
As to the kind of experiment: pS935 LRRK2 Cell Assay (HTRF, phospho-LRRK2 Ser935). The assay is classed as cell-based. Particulars: LRRK2 Inhibition, Table 8, 2 hours compound incubation. The gist of the method:
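Phospho-Ser935 LRRK2 measured by two-antibody HTRF (Eu-cryptate donor, d2 acceptor; 665/615 nm ratio) after overnight detection at 23° C. Before lysis, transiently LRRK2-transfected HEK-293T cells were exposed 2 h at 37° C to a 9-point, 3-fold series from 10 μM, with DMSO at 0.2%.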

Our source for the IC50 values is patent US20250270209A1 (INTERLINE THERAPEUTICS, INC., priority 2022, published 2025).

SMILES strings stand for the structures.

Chain of LRRK2 wild type enzyme (Q5S007 whole entry): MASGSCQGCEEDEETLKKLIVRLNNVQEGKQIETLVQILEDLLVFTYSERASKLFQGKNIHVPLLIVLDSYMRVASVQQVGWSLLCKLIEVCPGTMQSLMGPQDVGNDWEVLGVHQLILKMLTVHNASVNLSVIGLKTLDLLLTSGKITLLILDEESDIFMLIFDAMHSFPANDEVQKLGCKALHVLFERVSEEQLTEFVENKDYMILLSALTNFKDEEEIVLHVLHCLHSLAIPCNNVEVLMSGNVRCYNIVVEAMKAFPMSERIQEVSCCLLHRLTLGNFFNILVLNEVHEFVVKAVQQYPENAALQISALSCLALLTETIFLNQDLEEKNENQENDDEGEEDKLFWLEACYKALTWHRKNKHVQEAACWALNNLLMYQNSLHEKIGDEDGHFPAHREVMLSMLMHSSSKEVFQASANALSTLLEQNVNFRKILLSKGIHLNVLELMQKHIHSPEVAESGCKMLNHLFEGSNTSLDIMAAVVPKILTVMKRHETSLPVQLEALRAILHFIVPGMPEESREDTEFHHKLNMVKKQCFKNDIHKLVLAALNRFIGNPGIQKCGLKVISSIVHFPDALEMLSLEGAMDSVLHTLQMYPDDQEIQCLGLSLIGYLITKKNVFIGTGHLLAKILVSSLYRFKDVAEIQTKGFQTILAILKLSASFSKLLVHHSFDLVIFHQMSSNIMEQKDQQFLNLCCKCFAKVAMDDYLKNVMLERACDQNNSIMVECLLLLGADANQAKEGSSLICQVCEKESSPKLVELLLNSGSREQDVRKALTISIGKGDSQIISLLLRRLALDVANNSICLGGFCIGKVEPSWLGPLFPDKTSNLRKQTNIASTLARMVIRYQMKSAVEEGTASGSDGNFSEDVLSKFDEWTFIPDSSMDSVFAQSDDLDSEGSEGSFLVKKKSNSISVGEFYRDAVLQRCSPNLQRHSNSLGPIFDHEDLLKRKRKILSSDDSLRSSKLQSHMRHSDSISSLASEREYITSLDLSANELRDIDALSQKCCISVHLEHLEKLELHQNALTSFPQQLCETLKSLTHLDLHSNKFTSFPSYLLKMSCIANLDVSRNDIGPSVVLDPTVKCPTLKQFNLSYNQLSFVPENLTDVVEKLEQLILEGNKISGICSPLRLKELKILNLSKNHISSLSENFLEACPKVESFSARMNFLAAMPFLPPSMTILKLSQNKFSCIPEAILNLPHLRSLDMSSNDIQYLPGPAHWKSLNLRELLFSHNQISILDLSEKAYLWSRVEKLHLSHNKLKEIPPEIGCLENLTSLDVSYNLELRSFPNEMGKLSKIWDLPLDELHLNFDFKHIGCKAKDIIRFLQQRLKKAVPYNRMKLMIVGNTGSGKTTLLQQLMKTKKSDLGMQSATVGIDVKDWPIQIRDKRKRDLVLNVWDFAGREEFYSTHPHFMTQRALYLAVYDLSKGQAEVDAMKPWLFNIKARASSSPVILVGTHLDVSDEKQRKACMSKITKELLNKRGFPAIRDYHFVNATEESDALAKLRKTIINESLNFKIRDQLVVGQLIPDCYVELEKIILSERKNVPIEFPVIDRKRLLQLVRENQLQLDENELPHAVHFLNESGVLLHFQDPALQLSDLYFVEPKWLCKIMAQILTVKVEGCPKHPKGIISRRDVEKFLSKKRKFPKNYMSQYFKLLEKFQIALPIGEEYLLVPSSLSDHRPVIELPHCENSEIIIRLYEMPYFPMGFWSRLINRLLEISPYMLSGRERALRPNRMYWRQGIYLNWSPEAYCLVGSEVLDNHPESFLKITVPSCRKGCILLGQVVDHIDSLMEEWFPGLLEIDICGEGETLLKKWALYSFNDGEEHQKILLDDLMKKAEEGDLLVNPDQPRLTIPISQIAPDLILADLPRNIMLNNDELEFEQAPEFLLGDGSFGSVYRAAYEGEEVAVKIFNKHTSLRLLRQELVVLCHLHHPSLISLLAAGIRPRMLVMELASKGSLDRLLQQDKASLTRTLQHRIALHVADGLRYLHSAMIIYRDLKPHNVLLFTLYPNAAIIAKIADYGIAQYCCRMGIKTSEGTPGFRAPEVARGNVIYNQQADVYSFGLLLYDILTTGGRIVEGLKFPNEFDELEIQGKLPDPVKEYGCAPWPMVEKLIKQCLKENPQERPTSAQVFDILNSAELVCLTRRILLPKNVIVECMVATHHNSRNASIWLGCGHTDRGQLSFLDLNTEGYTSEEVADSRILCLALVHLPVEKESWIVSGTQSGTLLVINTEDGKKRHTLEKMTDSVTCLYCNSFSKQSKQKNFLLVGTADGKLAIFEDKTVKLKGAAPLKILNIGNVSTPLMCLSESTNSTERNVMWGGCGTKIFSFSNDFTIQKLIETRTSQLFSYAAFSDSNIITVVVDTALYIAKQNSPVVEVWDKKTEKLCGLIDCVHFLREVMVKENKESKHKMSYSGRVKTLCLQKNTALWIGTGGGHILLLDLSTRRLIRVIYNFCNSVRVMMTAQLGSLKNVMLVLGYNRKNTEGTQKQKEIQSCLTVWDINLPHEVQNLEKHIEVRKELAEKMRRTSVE
T1 sequence (Q5S007 whole entry): as above

As to `CC(=O)N1CC(c2nc3cnc4ccc(C#N)cc4c3n2[C@@H]2CCO[C@H](C)C2)C1` [Compound 63, 2-(1-acetylazetidin-3-yl)-1-[(2R,4R)-2-methyloxan-4-yl]-1H-imidazo[4,5-c]quinoline-8-carbonitrile], the IC50 – broadly, the concentration needed to halve the response being measured – against LRRK2 wild type enzyme was found to be 12.4 nM; in assay [1] it was 1850 nM.
On to `Cc1ccncc1NC(=O)Cc1nc2cnc3ccc(C#N)cc3c2n1[C@@H]1CCO[C@H](C)C1` [Compound 292, N-(4-methyl-3-pyridyl){3-[(2R,4R)-2-methyltetrahydro-2H-pyran-4-yl]-12-cyano-3,5,8-triazatricyclo[7.4.0.0^2,6]trideca-1,4,6,8,10,12-hexaen-4-yl}acetamide], for which the IC50 on LRRK2 wild type enzyme is 0.473 nM; in assay [1], 8.23 nM.
`C[C@@H]1C[C@H](n2c(CC(=O)NCC3CC3)nc3cnc4ccc(C#N)cc4c32)CCO1` [Compound 54, 2-{8-cyano-1-[(2R,4R)-2-methyloxan-4-yl]-1H-imidazo[4,5-c]quinolin-2-yl}-N-(cyclopropylmethyl)acetamide]: the IC50 is 0.336 nM on LRRK2 wild type enzyme and 14.9 nM in assay [1].
Taken in the same sequence, the figures for `C[C@@H]1C[C@H](n2c(CC(=O)Nc3cnoc3)nc3cnc4ccc(C#N)cc4c32)CCO1` [Compound 180, 2-{8-cyano-1-[(2R,4R)-2-methyloxan-4-yl]-1H-imidazo[4,5-c]quinolin-2-yl}-N-(1,2-oxazol-4-yl)acetamide] were 0.432 nM and 21.6 nM.
Taken in the same sequence, the figures for `C[C@@H]1C[C@H](n2c(CN3CCCCC3=O)nc3cnc4ccc(C#N)cc4c32)CCO1` [Compound 79, 1-[(2R,4R)-2-methyloxan-4-yl]-2-[(2-oxopiperidin-1-yl)methyl]-1H-imidazo[4,5-c]quinoline-8-carbonitrile] were 10.8 nM and 815 nM.
For `C[C@@H]1C[C@H](n2c(CC(=O)Nc3ncccn3)nc3cnc4ccc(Cl)cc4c32)CCO1` [Compound 353, N-2-pyrimidinyl{3-[(2R,4R)-2-methyltetrahydro-2H-pyran-4-yl]-12-chloro-3,5,8-triazatricyclo[7.4.0.0^2,6]trideca-1(9),2(6),4,7,10,12-hexaen-4-yl}acetamide], in that order: 0.395 nM and 1.84 nM.
In the case of `C[C@@H]1C[C@H](n2c(C3CN(S(=O)(=O)C4CC4)C3)nc3cnc4ccc(C#N)cc4c32)CCO1` [Compound 66, 2-[1-(cyclopropanesulfonyl)azetidin-3-yl]-1-[(2R,4R)-2-methyloxan-4-yl]-1H-imidazo[4,5-c]quinoline-8-carbonitrile], the concentration for half-maximal inhibition (IC50) was determined as 3.35 nM against LRRK2 wild type enzyme and 525 nM in assay [1].
Consider `C[C@@H]1C[C@H](n2c(CC(=O)Nc3cnn(C4CC4)c3)nc3cnc4ccc(C#N)cc4c32)CCO1` [Compound 307, N-(1-cyclopropyl-4-pyrazolyl){3-[(2R,4R)-2-methyltetrahydro-2H-pyran-4-yl]-12-cyano-3,5,8-triazatricyclo[7.4.0.0^2,6]trideca-1(13),2(6),4,7,9,11-hexaen-4-yl}acetamide], for which the 50% inhibitory concentration (IC50) on LRRK2 wild type enzyme is 0.683 nM; in assay [1] it was 17.2 nM.
Regarding `C[C@@H]1C[C@H](n2c(CC(=O)Nc3ccnnc3)nc3cnc4ccc(C#N)cc4c32)CCO1` [Compound 268, N-4-pyridazinyl{3-[(2R,4R)-2-methyltetrahydro-2H-pyran-4-yl]-12-cyano-3,5,8-triazatricyclo[7.4.0.0^2,6]trideca-1,4,6,8,10,12-hexaen-4-yl}acetamide], the results for the IC50 (against LRRK2 wild type enzyme; in assay [1]) were 0.461 nM and 109 nM, respectively.
With `C[C@@H]1C[C@H](n2c(CC(=O)N[C@@H](C)C3CC3)nc3cnc4ccc(C#N)cc4c32)CCO1` [Compound 8, 2-{8-cyano-1-[(2R,4R)-2-methyloxan-4-yl]-1H-imidazo[4,5-c]quinolin-2-yl}-N-[(1S)-1-cyclopropylethyl]acetamide], the values for the IC50 (on LRRK2 wild type enzyme; in assay [1]) were 1.49 nM and 118 nM, respectively.
Turning to `COc1ccncc1NC(=O)Cc1nc2cnc3ccc(C#N)cc3c2n1[C@@H]1CCO[C@H](C)C1` [Compound 250, N-(4-methoxy-3-pyridyl){3-[(2R,4R)-2-methyltetrahydro-2H-pyran-4-yl]-12-cyano-3,5,8-triazatricyclo[7.4.0.0^2,6]trideca-1(9),2(6),4,7,10,12-hexaen-4-yl}acetamide], the IC50 against LRRK2 wild type enzyme was 0.664 nM; in assay [1], 6.01 nM.
As for `C[C@@H]1C[C@H](n2c(CC(=O)NCc3ccncc3)nc3cnc4ccc(C#N)cc4c32)CCO1` [Compound 15, 2-{8-cyano-1-[(2R,4R)-2-methyloxan-4-yl]-1H-imidazo[4,5-c]quinolin-2-yl}-N-[(pyridin-4-yl)methyl]acetamide], the IC50 on LRRK2 wild type enzyme was found to be 0.294 nM; in assay [1], 15.8 nM.
For `C[C@@H]1C[C@H](n2c(CC(=O)NCC3CC3)nc3cnc4ccc(C5CC5)cc4c32)CCO1` [Compound 159, 2-{8-cyclopropyl-1-[(2R,4R)-2-methyloxan-4-yl]-1H-imidazo[4,5-c]quinolin-2-yl}-N-(cyclopropylmethyl)acetamide], in that order: 1.65 nM and 94.1 nM.
For `C[C@@H]1C[C@H](n2c(CC(=O)Nc3ccc(=O)n(C)c3)nc3cnc4ccc(C#N)cc4c32)CCO1` [Compound 281, N-(1-methyl-6-oxo-1,6-dihydro-3-pyridyl){3-[(2R,4R)-2-methyltetrahydro-2H-pyran-4-yl]-12-cyano-3,5,8-triazatricyclo[7.4.0.0^2,6]trideca-1,4,6,8,10,12-hexaen-4-yl}acetamide], in that order: 0.394 nM and 336 nM.
For `Cc1ccc(NC(=O)Cc2nc3cnc4ccc(C#N)cc4c3n2[C@@H]2CCO[C@H](C)C2)c(C)n1` [Compound 270, N-(2,6-dimethyl-3-pyridyl){3-[(2R,4R)-2-methyltetrahydro-2H-pyran-4-yl]-12-cyano-3,5,8-triazatricyclo[7.4.0.0^2,6]trideca-1,4,6,8,10,12-hexaen-4-yl}acetamide], in that order: 0.504 nM and 7.36 nM.
Regarding `C[C@@H]1C[C@H](n2c(CC(=O)Nc3cccnn3)nc3cnc4ccc(C#N)cc4c32)CCO1` [Compound 168, 2-{8-cyano-1-[(2R,4R)-2-methyloxan-4-yl]-1H-imidazo[4,5-c]quinolin-2-yl}-N-(pyridazin-3-yl)acetamide], the results for the half-inhibitory concentration (IC50) (at LRRK2 wild type enzyme; in assay [1]) were 0.375 nM and 8.76 nM, respectively.
As for `C[C@@H]1C[C@H](n2c(CC(=O)NCC3CCCCO3)nc3cnc4ccc(C#N)cc4c32)CCO1` (stereo partly drawn) [Compound 143, 2-{8-cyano-1-[(2R,4R)-2-methyloxan-4-yl]-1H-imidazo[4,5-c]quinolin-2-yl}-N-[(oxan-2-yl)methyl]acetamide], the half-maximal inhibitory concentration (IC50) against LRRK2 wild type enzyme came to 0.534 nM; in assay [1] it was 11.5 nM.
As to `C[C@@H]1C[C@H](n2c(CC(=O)N(C)C)nc3cnc4ccc(C#N)cc4c32)CCO1` [Compound 9, 2-{8-cyano-1-[(2R,4R)-2-methyloxan-4-yl]-1H-imidazo[4,5-c]quinolin-2-yl}-N,N-dimethylacetamide], the IC50 is 6.28 nM against LRRK2 wild type enzyme and 605 nM in assay [1].
For `CC(C)n1cc(NC(=O)Cc2nc3cnc4ccc(C#N)cc4c3n2[C@@H]2CCO[C@H](C)C2)cn1` [Compound 306, N-(1-isopropyl-4-pyrazolyl){3-[(2R,4R)-2-methyltetrahydro-2H-pyran-4-yl]-12-cyano-3,5,8-triazatricyclo[7.4.0.0^2,6]trideca-1(13),2(6),4,7,9,11-hexaen-4-yl}acetamide], in that order: 0.721 nM and 16 nM.
Regarding `C[C@@H]1C[C@H](n2c(CC(=O)Nc3cncnc3)nc3cnc4ccc(C#N)cc4c32)CCO1` [Compound 322, N-5-pyrimidinyl{3-[(2R,4R)-2-methyltetrahydro-2H-pyran-4-yl]-12-cyano-3,5,8-triazatricyclo[7.4.0.0^2,6]trideca-1(9),2(6),4,7,10,12-hexaen-4-yl}acetamide], the IC50 at LRRK2 wild type enzyme was 1.08 nM; in assay [1] it was 32.2 nM.
For `C[C@@H]1C[C@H](n2c([C@H]3CCCN(C(=O)C4CC4)C3)nc3cnc4ccc(C#N)cc4c32)CCO1` [Compound 29, 2-[(3S)-1-cyclopropanecarbonylpiperidin-3-yl]-1-[(2R,4R)-2-methyloxan-4-yl]-1H-imidazo[4,5-c]quinoline-8-carbonitrile], in that order: 135 nM and 4680 nM.
For `COc1ncc(NC(=O)Cc2nc3cnc4ccc(C#N)cc4c3n2[C@@H]2CCO[C@H](C)C2)c(C2CC2)n1` [Compound 278, N-(4-cyclopropyl-2-methoxy-5-pyrimidinyl){3-[(2R,4R)-2-methyltetrahydro-2H-pyran-4-yl]-12-cyano-3,5,8-triazatricyclo[7.4.0.0^2,6]trideca-1,4,6,8,10,12-hexaen-4-yl}acetamide], in that order: 0.418 nM and 2 nM.
As for `C[C@@H]1C[C@H](n2c([C@H]3CCN(C(=O)C4CC4)C3)nc3cnc4ccc(C#N)cc4c32)CCO1` [Compound 41, 2-[(3S)-1-cyclopropanecarbonylpyrrolidin-3-yl]-1-[(2R,4R)-2-methyloxan-4-yl]-1H-imidazo[4,5-c]quinoline-8-carbonitrile], the figures for the IC50 (against LRRK2 wild type enzyme; in assay [1]) were 9.62 nM and 639 nM, respectively.
Consider `C[C@@H]1C[C@H](n2c(CC(=O)Nc3nccc(C4CC4)n3)nc3cnc4ccc(C#N)cc4c32)CCO1` [Compound 338, N-(4-cyclopropyl-2-pyrimidinyl){3-[(2R,4R)-2-methyltetrahydro-2H-pyran-4-yl]-12-cyano-3,5,8-triazatricyclo[7.4.0.0^2,6]trideca-1(9),2(6),4,7,10,12-hexaen-4-yl}acetamide], for which the half-maximal inhibitory concentration (IC50) against LRRK2 wild type enzyme is 0.364 nM; in assay [1], 1.87 nM.
